Source: patent US20040167061A1, “Substantially homogeneous bio-affecting material having a pre-determined ratio of bioaffecting component to cell targeting component, the method for making such a material and the method of its use” (priority 2003, published 2004)

Experiments:
NADH-oxidase = conditions: plasma membrane redox enzyme; cited from earlier work
[1] = tested on: leukemic cells in peripheral blood; conditions: cited from earlier work
human mesothelioma cells = conditions: nude mice with (drug-resistant) human mesothelioma cells; compared to animals treated only with doxorubicin; cited from earlier work
[2] = tested on: metastatic lesions from a sarcoma; conditions: treatment begun August 2000
advanced ovarian cancer = test: unpublished randomized clinical study in advanced ovarian cancer; assay type: in vivo, human; conditions: equivalent to 1 mg doxorubicin per day on days 15 through 19 of monthly cycles; time between diagnosis and randomization 18 months
Experimental: There is an unpublished clinical study of 23 patients with advanced ovarian cancer who were randomized into test (12 patients) and placebo (11 patients) groups. The test group received transferrin-doxorubicin conjugates equivalent to 1 mg doxorubicin per day on days 15 through 19 of monthly treatment cycles.

[3] = tested on: multi-drug resistant cells; conditions: cited from earlier work

In the case of `COc1cccc2c1C(=O)c1c(O)c3c(c(O)c1C2=O)C[C@@](O)(C(=O)CO)C[C@@H]3O[C@H]1C[C@H](N)[C@H](O)[C@H](C)O1` [doxorubicin], the “inhibition of NADH-oxidase” value (NADH-oxidase) is given as “efficient inhibitor”.

For “glutaraldehyde-prepared transferrin-doxorubicin conjugates”, the “decrease of number of leukemic cells in peripheral blood” value ([1]; 7 patients, 1 mg/day iv for 5 days, within 10-days following therapy) is listed as 86%, the extension of disease ([1]; bone marrow biopsies before and after treatment) is listed as “no extension of disease” and the toxic effects ([1]; seven acute leukemia patients, 1 mg/day intravenously for 5 days) is listed as “no toxic effects”. For the same compound, the “survival (prolonging life)” value (human mesothelioma cells) was “significantly prolonging life”.

For transferrin-doxorubicin conjugates, the “inhibition of NADH-oxidase” value (NADH-oxidase) is given as “inhibit”, the “radiological evidence of tumor” value ([2]; by January) is given as “no radiological evidence of tumor” and the “metastatic lesions in the lungs” value ([2]; by November) is given as “substantially cleared of metastatic lesions”. The “Cox regression estimates of survival rates, test versus placebo” value (advanced ovarian cancer) was “significant difference” and the “killing of multi-drug resistant cells” value [3] was “effectively kill”.
